Results taken from patent US20190008870A1, “COMPOSITIONS AND METHODS FOR LIPID METABOLISM DISORDER” (JANSFAT BIOTECHNOLOGY CO., LTD., priority 2016, published 2019).

Tests used:
TNF-α = assay: IHC staining of TNF-α in epididymal fat pads; assay type: in vivo, mice; conditions: HFD 14 weeks, KMUP-1 2.5 mg/kg/day, Control 36
Procedure: (§1) For IHC of MMP-9/TNFα, HSL/p-HSL/ATGL and eNOS/IL-10, antigen retrieval of de-paraffinated sections was performed in Dako target retrieval solution, pH 9.0, in a vegetable steamer followed by the quenching of endogenous peroxidase activity with 3.0% H2O2 in methanol. Sections were then incubated with specific primary antibodies overnight at 4° C. in a humidified chamber. The antibodies used included rabbit polyclonal anti-eNOS (1:50 dilution) (Abcam, Cambridge, UK) or rabbit monoclonal anti-cleaved caspase-3 (1:50 dilution) (Cell Signaling, U.S.A.). The sections were then examined using a DAKO REAL EnVision™ Detection System kit (DAKO, Carpinteria, Calif., U.S.A.) and counterstained with hematoxylin. Images were obtained through a Nikon Eclipse TE200-S microscope.

liver fat globules = assay: Amounts and diameter of liver fat globules in IHC-stained liver sections (steatohepatitis); assay type: in vivo; design: Amounts of liver fat globules, p-HSL staining / Amounts of liver fat globules, TNF-α staining / Amounts of liver fat globules, MMP-9 staining / Amounts of liver fat globules, HSL staining / Amounts of fat globules in steatohepatitis, ATGL staining / Amounts of fat globules in steatohepatitis, CD11c-M1 staining / Amounts of fat globules in steatohepatitis, CD209a-M2 staining: unit not given here; conditions: HFD mice
Procedure: The diameter of the white bar in the photograph was standardized at […] for measuring the specific diameter of oil globulets in a whole liver slice, observed by microscope, with the aid of Powerpoint PC computer software (Microsoft®, U.S.A.) and printed out by a Hewlett-Packard® printer (U.S.A.). An increase in oil globulet diameter and cell number indicated increasing liver steatosis, i.e. steaotohepatitis. In contrast, decrease in diameter and the number of fat cells indicated the inhibition of steaotohepatitis. […] Hematoxylin-eosin (H&E) and IHC staining of liver were used to assess oil globulet numbers under a microscope.
as §1

Q: What does the source list for `Cn1c(=O)c2c(ncn2CCN2CCN(c3ccccc3Cl)CC2)n(C)c1=O` [KMUP-1, 7-[2-[4-(2-chlorophenyl)piperazinyl]ethyl]-1,3-dimethylxanthine]?
A: Immunorespons percentages, TNF-α (TNF-α): 22%; Amounts of fat globules in steatohepatitis, ATGL staining (liver fat globules; Protection group): 28; Amounts of fat globules in steatohepatitis, CD11c-M1 staining (liver fat globules; Protection group): 26; Amounts of fat globules in steatohepatitis, CD209a-M2 staining (liver fat globules; Protection group): 41; Amounts of liver fat globules, HSL staining (liver fat globules; Protection group): 115; Amounts of liver fat globules, MMP-9 staining (liver fat globules; Protection group): 18; Amounts of liver fat globules, TNF-α staining (liver fat globules; Protection group): 18; Amounts of liver fat globules, p-HSL staining (liver fat globules; Protection group): 28; Diameter of fat globules in steatohepatitis, ATGL staining (liver fat globules; Protection group): 5.5 μm; Diameter of fat globules in steatohepatitis, CD11c-M1 staining (liver fat globules; Protection group): 8 μm; Diameter of fat globules in steatohepatitis, CD209a-M2 staining (liver fat globules; Protection group): 9.5 μm; Diameter of liver fat globules, HSL staining (liver fat globules; Protection group): 9.7 μm; Diameter of liver fat globules, MMP-9 staining (liver fat globules; Protection group): 8 μm; Diameter of liver fat globules, TNF-α staining (liver fat globules; Protection group): 8 μm; Diameter of liver fat globules, p-HSL staining (liver fat globules; Protection group): 3.9 μm; Amounts of fat globules in steatohepatitis, ATGL staining (liver fat globules; Treatment group): 46; Amounts of fat globules in steatohepatitis, CD11c-M1 staining (liver fat globules; Treatment group): 41; Amounts of fat globules in steatohepatitis, CD209a-M2 staining (liver fat globules; Treatment group): 50; Amounts of liver fat globules, HSL staining (liver fat globules; Treatment group): 116; Amounts of liver fat globules, MMP-9 staining (liver fat globules; Treatment group): 19; Amounts of liver fat globules, TNF-α staining (liver fat globules; Treatment group): 19; Amounts of liver fat globules, p-HSL staining (liver fat globules; Treatment group): 68; Diameter of fat globules in steatohepatitis, ATGL staining (liver fat globules; Treatment group): 9.8 μm; Diameter of fat globules in steatohepatitis, CD11c-M1 staining (liver fat globules; Treatment group): 15.5 μm; Diameter of fat globules in steatohepatitis, CD209a-M2 staining (liver fat globules; Treatment group): 11.8 μm; Diameter of liver fat globules, HSL staining (liver fat globules; Treatment group): 9.8 μm; Diameter of liver fat globules, MMP-9 staining (liver fat globules; Treatment group): 9 μm; Diameter of liver fat globules, TNF-α staining (liver fat globules; Treatment group): 9 μm; Diameter of liver fat globules, p-HSL staining (liver fat globules; Treatment group): 9.8 μm
